Data on three compounds can be found in patent publication US12109197B2, “Combinations of β-lactam compounds and probenecid and uses thereof” (Iterum Therapeutics International Limited, priority 2018, dated 2024).

SMILES strings stand for the structures. Like-named read-outs stand apart in the source and are kept apart here.

How the values of data set [1] were obtained: Subjects were to be dosed twice a day (every 12 hours) for 6 days and on Day 7 they were to be dosed once. All treatment groups could be run in parallel or sequentially. Subjects were allocated based on the randomization list. Randomization numbers were assigned sequentially as subjects entered into groups on the basis of their order of entry into the study. Subjects who withdrew for reasons unrelated to safety may have been replaced. Blood samples were obtained at prespecified intervals in order to characterize pharmacokinetics.

The conditions of data set [2]: Dacey and Sande 1974; cited from earlier work.
The next data set relates to Porphyromonas gingivalis. The settings on record: Ednie and Appelbaum 2009; cited from earlier work.
Data set [3] can be described thus: Multiple-dose study of sulopenem delivered intravenously: plasma pharmacokinetics. The format is in vivo, human. The settings on record: for AUC(0-inf) / AUC(0-t) / Cmax / half-life / Tmax / CL renal: human, plasma, iv; for Tmax: median [range]; for Rac: accumulation ratio. As for the experimental part: The pharmacokinetics of sulopenem delivered intravenously were studied in a randomized, investigator-blind, subject-blind, sponsor-open, placebo-controlled, multiple-dose study of sulopenem. There were 5 cohorts dosed. Each subject was dosed for up to 14 days. Each cohort consisted of 10 subjects.

[4] abbreviates: 800 mg, intravenous 800 mg (3 h BID), Day 1.
Where [5] appears, read: 800 mg, intravenous 800 mg (3 h BID), Day 14.
Where [6] appears, read: 1200 mg, intravenous 1200 mg (1 h BID), Day 1.
[7] abbreviates: 1200 mg, intravenous 1200 mg (1 h BID), Day 14.
Where [8] appears, read: 1200 mg, intravenous 1200 mg ([…] BID), Day 1.
Where [9] appears, read: 1200 mg, intravenous 1200 mg ([…] BID), Day 14.
Setting [10] is: 1600 mg, intravenous 1600 mg (1.5 h BID), Day 1.
Where [11] appears, read: 1600 mg, intravenous 1600 mg (1.5 h BID), Day 14.
The mark [12] stands for this setting: 2000 mg, intravenous 2000 mg (1.5 h BID), Day 1.

Turning to `CCOC(C)(C)C(=O)OCOC(=O)C1=C(S[C@H]2CC[S@@+]([O-])C2)S[C@@H]2[C@@H]([C@@H](C)O)C(=O)N12` [Compound III-1b], the results for the “AUC of sulopenem on Day 7 compared with Day 1” value in data set [1] (administered alone through the oral route) and in data set [1] (co-administered with probenecid) were “lower than that on Day 1” and “increased on Day 7 beyond that seen on Day 1”, respectively.
Turning to `CCCN(CCC)S(=O)(=O)c1ccc(C(=O)O)cc1` [probenecid], the “effect on concentrations of β-lactam compounds in the cerebrospinal fluid” value in data set [2] is “increase the concentrations of β-lactam compounds in the cerebrospinal fluid”.
In general, AUC(0-inf) refers to total exposure, with the tail of the curve extrapolated. Higher therefore signals high exposure. Usually AUC(0-t) stands for exposure summed from dosing to a finite time, without extrapolation to infinity. The low end stands for less exposure, the high end for more exposure. For orientation: Cmax means the peak of the concentration-time curve. As a reminder, the half-life is how long it takes for the measured level to halve. Lower therefore signals fast loss. By Tmax is commonly meant the time from dosing to the highest level. Regarding `C[C@@H](O)[C@H]1C(=O)N2C(C(=O)O)=C(S[C@H]3CC[S@@+]([O-])C3)S[C@H]12` [sulopenem], the “activity against Porphyromonas gingivalis” value with Porphyromonas gingivalis is “active”. For the same compound, the AUC(0-inf) in data set [3] (setting [4]) came out at 22400 ng·h/mL; in data set [3] (setting [5]), 26500 ng·h/mL; in data set [3] (setting [6]) it was 42300 ng·h/mL; in data set [3] (setting [7]), 41400 ng·h/mL; in data set [3] (setting [8]), 41900 ng·h/mL; in data set [3] (setting [9]), 34600 ng·h/mL. Besides, the AUC(0-inf) worked out at 67300 ng·h/mL in data set [3] (setting [10]), 54900 ng·h/mL in data set [3] (setting [11]) and 90300 ng·h/mL in data set [3] (setting [12]). The AUC(0-t) came out at 22300 ng·h/mL in data set [3] (setting [4]); 26400 ng·h/mL in data set [3] (setting [5]); 42200 ng·h/mL in data set [3] (setting [6]); 41300 ng·h/mL in data set [3] (setting [7]); 41800 ng·h/mL in data set [3] (setting [8]); 34500 ng·h/mL in data set [3] (setting [9]). Besides, the AUC(0-t) was 67100 ng·h/mL in data set [3] (setting [10]), 54700 ng·h/mL in data set [3] (setting [11]) and 90100 ng·h/mL in data set [3] (setting [12]). Moreover, the peak concentration (Cmax) in data set [3] (setting [4]) is 7270 ng/mL; in data set [3] (setting [5]), 8970 ng/mL; in data set [3] (setting [6]), 32500 ng/mL; in data set [3] (setting [7]), 30700 ng/mL; in data set [3] (setting [8]), 16600 ng/mL; in data set [3] (setting [9]), 13500 ng/mL. Besides, the Cmax in data set [3] (setting [10]) came out at 40100 ng/mL; in data set [3] (setting [11]) it was 31800 ng/mL; in data set [3] (setting [12]) it was 51500 ng/mL. The half-life is 0.825 h in data set [3] (setting [4]); 0.889 h in data set [3] (setting [5]); 1.04 h in data set [3] (setting [6]); 1.05 h in data set [3] (setting [7]); 1.12 h in data set [3] (setting [8]); 1.01 h in data set [3] (setting [9]). Besides, the figures for the half-life in data set [3] (setting [10]), in data set [3] (setting [11]) and in data set [3] (setting [12]) were 1.04 h, 1.2 h and 1.12 h, respectively. In addition, the Tmax in data set [3] (setting [4]) amounted to 2 h; in data set [3] (setting [5]), 2 h; in data set [3] (setting [6]), 1 h; in data set [3] (setting [7]), 1 h; in data set [3] (setting [8]) it was 2.25 h; in data set [3] (setting [9]), 2 h. In addition, the Tmax in data set [3] (setting [10]) stood at 1.5 h; in data set [3] (setting [11]), 1.25 h; in data set [3] (setting [12]), 1.5 h. In addition, the CL renal was 257 mL/min in data set [3] (setting [5]), 245 mL/min in data set [3] (setting [7]), 313 mL/min in data set [3] (setting [9]) and 327 mL/min in data set [3] (setting [11]). Besides, the Rac in data set [3] (intravenous 800 mg (3 h BID), Day 14) is listed as 1.15 (29); in data set [3] (intravenous 1200 mg (1 h BID), Day 14) it was 0.928 (17); in data set [3] (intravenous 1200 mg ([…] BID), Day 14), 0.841 (9); in data set [3] (intravenous 1600 mg (1.5 h BID), Day 14) it was 0.791 (9).
